Measurements from patent US4826975A, “Fused cycloaliphatic aminoalcohols” (Maggioni-Winthrop S.P.A., priority 1986, dated 1989).

What was measured:
toxic adrenaline doses = assay: animal or person; assay type: in vivo, mice; conditions: Mus musculus, po; 2 hrs before 14.5 mg/kg 1-adrenaline i.p., mortality after 24 hrs; read-out: DP50 (50% protective dose)
[1] = oral acute toxicity in male mice; conditions: mouse, in vivo
Experimental: The oral acute toxicity in male mice of the invention compound is very low. […]; and higher than 2,000 mg/kg for MG 38005, MG 28401, MG 28414 and MG 28427.

Normolipemic rats = assay: hypolipemic activity in normolipemic rats (serum lipids, liver weight); assay type: in vivo, rat
Experimental: Total cholesterol (CHOL), triglycerides (TG), HDL cholesterol CHOL-HDL) were assayed in serum and the liver was weighed.

platelet aggregation = assay: effect on collagen-stimulated platelet aggregation, ex vivo; assay type: in vivo; conditions: Rattus norvegicus, 0.15 mM/kg oral, 1 hr, collagen 2-4 mcg/ml, read-out: % inhibition, Aggregation rate
Experimental: The effect on platelet aggregation was tested ex vivo according to the method of Minsker, (J. Pharmacol. Exp. Ther. 210, 37, 1979) slightly modified. Groups of 3 rats (280-350 g) were treated orally with vehicle (controls) and compounds (0.15 mM/kg). Blood was collected and pooled from rats of each group 1 hr after treatment and the platelet rich plasma (PRP) was separated by centrifugation.
Platelet aggregation was stimulated with collagen (2-4-mcg/ml) added simultaneously to PRP of control and treated rats. The results were assessed photometrically. Each test was replicated 4 times in groups of 3 animals. Aggregation curves were evaluated in terms of two parameters namely maximum optical density variation (maximum aggregation) and aggregation rate.

gasping time in mice = assay: anti-hypoxic activity, gasping time after decapitation; assay type: in vivo
Experimental: The anti-hypoxic activity was determined according to Yasuda et al., Arch. Int. Pharmacodyn. 233, 136, 1978.
Groups of 10 male mice (21-23 g) were treated orally with vehicle (controls) and the invention compounds. After 45 or 90 minutes the animals were decapitated and the gasping time was determined. Table 6 gives the results obtained after administration of some of the invention compounds which display an activity higher than Suloctidil.

DOCA rats = assay type: in vivo, rat; conditions: 15 mg/kg po
Experimental: Changes in blood pressure (mm Hg) before (T=O) and after treatment (2, 4 and 6 hrs) were measured according to the method of tail artery plethysmography reported in "Spontaneously hypertensive rats (SHR), guidelines for breeding, care and use", SHR Conference, 1976, page 11.
The heart rate was also […] (BP Recorder No. 8006 supplied by Basile, Comerio, Italy). The arterial pressure before the treatment was 210±10 mmHg in SHR and 200±10 in DOCA rats.

SHR = assay: anti-hypertensive activity in spontaneously hypertensive (SH) rats, tail artery plethysmography; conditions: 15 mg/kg po
[2] = 100 mg/kg p.o., pretreatment 45 min.
[3] = 100 mg/kg p.o., pretreatment 90 min.

Work on `COc1cc2c(c(OC)c1OC)C[C@@H](N1CCC(n3c(=O)[nH]c4cc(Cl)ccc43)CC1)[C@H]2O` (relative stereo) [MG 38119, cis-2-[4-(2-Oxo-5-chloro-1-benzimidazolinyl)-1-piperidinyl]-4,5,6-trimethoxy-1-indanol] yielded an ED50 (toxic adrenaline doses) of 4.4 mg/kg.

In the case of `COc1cc2c(c(OC)c1OC)C[C@H](N1CCC(NC(=O)c3ccccc3)CC1)[C@@H]2O` (relative stereo) [MG 38107, cis-2-(4-Benzamido-1-piperidinyl)-4,5,6-trimethoxy-1-indanol], the LD50 [1] is reported as greater than 1000 mg/kg, the ED50 (toxic adrenaline doses) is reported as 2.45 mg/kg and the “CHOL, % difference from control” value (Normolipemic rats; 0.185 mM/kg po × 4 days) is reported as -35.7%. For the same molecule, the “CHOL-HDL, % difference from control” value (Normolipemic rats; 0.185 mM/kg po × 4 days) was -8.5%, the “Liver weight, % difference from control” value (Normolipemic rats; 0.185 mM/kg po × 4 days) was “+5.6%” and the “TG, % difference from control” value (Normolipemic rats; 0.185 mM/kg po × 4 days) was -50.9%. For the same molecule, the “CHOL, % difference from control” value (Normolipemic rats; 0.370 mM/kg po × 4 days) was -30.7%, the “CHOL-HDL, % difference from control” value (Normolipemic rats; 0.370 mM/kg po × 4 days) was -26.3% and the “Liver weight, % difference from control” value (Normolipemic rats; 0.370 mM/kg po × 4 days) was 0%. For the same molecule, the “TG, % difference from control” value (Normolipemic rats; 0.370 mM/kg po × 4 days) was -58.5%, the “hypolipemic effect / activity (in words)” value (Normolipemic rats; oral) was “higher than with Clofibrate” and the “effect on CHOL and TG (in words)” value (Normolipemic rats; oral, 4 days) was “marked decrease both of CHOL and TG”.

For `Cc1ccc(N(CC2=NCCN2)c2cccc(O)c2)cc1` [Phentolamine, reference compound], the ED50 (toxic adrenaline doses) was 8 mg/kg.

For `CC(C)(Sc1cc(C(C)(C)C)c(O)c(C(C)(C)C)c1)Sc1cc(C(C)(C)C)c(O)c(C(C)(C)C)c1` [Probucol, reference compound], the “CHOL, % difference from control” value (Normolipemic rats; 0.205 mM/kg po × 8 days) was -25.0%, the “CHOL-HDL, % difference from control” value (Normolipemic rats; 0.205 mM/kg po × 8 days) was -26% and the “Liver weight, % difference from control” value (Normolipemic rats; 0.205 mM/kg po × 8 days) was “+4%”. For the same molecule, the “TG, % difference from control” value (Normolipemic rats; 0.205 mM/kg po × 8 days) was -28.0%, the “CHOL, % difference from control” value (Normolipemic rats; 0.820 mM/kg po × 4 days) was ~ 0% and the “CHOL-HDL, % difference from control” value (Normolipemic rats; 0.820 mM/kg po × 4 days) was “+18.5%”. For the same molecule, the “Liver weight, % difference from control” value (Normolipemic rats; 0.820 mM/kg po × 4 days) was ~ 0%, the “TG, % difference from control” value (Normolipemic rats; 0.820 mM/kg po × 4 days) was ~ 0% and the “hypolipemic effect / activity (in words)” value (Normolipemic rats; oral) was “moderate and is noted only after prolonged treatment (8 days)”.

With `COc1cc2c(cc1OC)[C@H](O)[C@H](N1CCC(n3c(=O)[nH]c4cc(Cl)ccc43)CC1)C2` (relative stereo) [MG 38121, cis 2-[4-(2-Oxo-5-chloro-1-benzimidazolinyl)-1-piperidinyl]-5,6-dimethoxy-1-indanol] the ED50 (toxic adrenaline doses) was 2.75 mg/kg.

With `CCCCCCCCNC(C)C(O)c1ccc(SC(C)C)cc1` (stereo not drawn) [Suloctidil, reference compound] the inhibition at 0.15 mmol/kg (platelet aggregation) was 57.5%, the “Gasping time, % diff. from control” value (gasping time in mice; [2]) was “+27.5%” and the “Gasping time, % diff. from control” value (gasping time in mice; [3]) was “+11.7%”.

For `COc1cc2c(c(OC)c1OC)C[C@H](N1CCC(n3c(=O)[nH]c4cc(Cl)ccc43)CC1)[C@H]2O` (relative stereo) [MG 38122, trans-2-[4-(2-Oxo-5-chloro-1-benzimidazolinyl)-1-piperidinyl]-4,5,6-trimethoxy-1-indanol], the “Max. changes in systolic pressure” value (DOCA rats) was -28 mmHg and the “Max. changes in systolic pressure” value (SHR) was -41.9 mmHg.

With `COc1cc2c(cc1OC)[C@@H](O)[C@@H](N1CCN(c3ccccc3OC)CC1)C2` (relative stereo) [MG 38100, cis-2-[4-(2-Methoxyphenyl)-1-piperazinyl]-5,6-dimethoxy-1-indanol] the LD50 [1] was greater than 500 mg/kg, the ED50 (toxic adrenaline doses) was 8.5 mg/kg and the “Gasping time, % diff. from control” value (gasping time in mice; [2]) was “+95.7%”.

`COc1cc2c(cc1OC)[C@@H](O)[C@H](N1CCN(C(=O)C=Cc3ccccc3)CC1)C2` (relative stereo) [MG 28414, trans 2-[4-(1-Oxo-3-phenyl-2-propenyl)-1-piperazinyl]-5,6-dimethoxy-1-indanol] gave an inhibition at 0.15 mmol/kg (platelet aggregation) of 58% and an LD50 [1] greater than 2000 mg/kg.

For `COc1cc2c(cc1OC)[C@@H](O)[C@@H](N1CCC(NC(=O)c3ccccc3)CC1)C2` (relative stereo) [MG 38112, cis 2-(4-Benzamido-1-piperidinyl)-5,6-dimethoxy-1-indanol], the LD50 [1] was greater than 1000 mg/kg, the ED50 (toxic adrenaline doses) was 4.4 mg/kg and the “Max. changes in systolic pressure” value (DOCA rats) was -19 mmHg. For the same molecule, the “Max. changes in systolic pressure” value (SHR) was -35 mmHg, the “CHOL, % difference from control” value (Normolipemic rats; 0.185 mM/kg po × 4 days) was -45.2% and the “CHOL-HDL, % difference from control” value (Normolipemic rats; 0.185 mM/kg po × 4 days) was -18.6%. For the same molecule, the “Liver weight, % difference from control” value (Normolipemic rats; 0.185 mM/kg po × 4 days) was 0%, the “TG, % difference from control” value (Normolipemic rats; 0.185 mM/kg po × 4 days) was -41.8% and the “CHOL, % difference from control” value (Normolipemic rats; 0.370 mM/kg po × 4 days) was -52.7%. For the same molecule, the “CHOL-HDL, % difference from control” value (Normolipemic rats; 0.370 mM/kg po × 4 days) was -21.4%, the “Liver weight, % difference from control” value (Normolipemic rats; 0.370 mM/kg po × 4 days) was “+3.9%” and the “TG, % difference from control” value (Normolipemic rats; 0.370 mM/kg po × 4 days) was -58.9%. For the same molecule, the “hypolipemic effect / activity (in words)” value (Normolipemic rats; oral) was “higher than with Clofibrate” and the “effect on CHOL and TG (in words)” value (Normolipemic rats; oral, 4 days) was “marked decrease both of CHOL and TG”.

With `CCCCCCCCN[C@H]1Cc2cc(OC)c(OC)cc2[C@@H]1O` (relative stereo) [MG 28400, trans 5,6-Dimethoxy-2-(n-octylamino)-1-indanol] the LD50 [1] was greater than 500 mg/kg and the “Gasping time, % diff. from control” value (gasping time in mice; [2]) was “+53.8%”.

With `Fc1ccc(C(c2ccc(F)cc2)N2CCN(C/C=C/c3ccccc3)CC2)cc1` [Flunarizine, reference compound] the “Gasping time, % diff. from control” value (gasping time in mice; 50 mg/kg p.o., pretreatment 90 min.) was “+68.7%”.

With `COc1cc2c(c(OC)c1OC)CC(N1CCC(n3c(=O)[nH]c4ccccc43)CC1)C2=O` (stereo not drawn) [MG 38005, 2-[4-(2-oxo-1-benzimidazolinyl)-1-piperidinyl]-4,5,6-trimethoxy-1-indanone] the LD50 [1] was greater than 2000 mg/kg, the “Max. changes in systolic pressure” value (DOCA rats) was -27 mmHg and the “Max. changes in systolic pressure” value (SHR) was -42 mmHg.

`COc1cc2nc(N3CCN(C(=O)c4ccco4)CC3)nc(N)c2cc1OC` [Prazosin, reference compound] gave an ED50 (toxic adrenaline doses) of 0.7 mg/kg.

In the case of `COc1cc2c(cc1OC)[C@H](O)[C@@H](N1CCC(n3c(=O)[nH]c4cc(Cl)ccc43)CC1)C2` (relative stereo) [MG 38131, trans-2-[4-(2-Oxo-5-chloro-1-benzimidazolinyl)-1-piperidinyl]-5,6-dimethoxy-1-indanol], the “CHOL, % difference from control” value (Normolipemic rats; 0.370 mM/kg po × 4 days) is reported as ~ 0%, the “CHOL-HDL, % difference from control” value (Normolipemic rats; 0.370 mM/kg po × 4 days) is reported as “+57.2%” and the “Liver weight, % difference from control” value (Normolipemic rats; 0.370 mM/kg po × 4 days) is reported as “+6.9%”. For the same molecule, the “TG, % difference from control” value (Normolipemic rats; 0.370 mM/kg po × 4 days) was -41.4%.

With `CCCCCCCCN[C@@H]1Cc2c(cc(OC)c(OC)c2OC)[C@H]1O` (relative stereo) [MG 38006, trans 2-(n-Octylamino)-4,5,6-trimethoxy-1-indanol] the LD50 [1] was greater than 1000 mg/kg and the “Gasping time, % diff. from control” value (gasping time in mice; [2]) was “+33.2%”.

For `COc1cc2c(c(OC)c1OC)CC[C@H](N1CCC(n3c(=O)[nH]c4cc(Cl)ccc43)CC1)[C@H]2O` (relative stereo) [MG 16456, trans-2-[4(2-Oxo-5-chloro-1-benzimidazolinyl)-1-piperidinyl]-5,6,7-trimethoxy-1-tetralol], the ED50 (toxic adrenaline doses) was 1.85 mg/kg and the “Gasping time, % diff. from control” value (gasping time in mice; [3]) was “+36.3%”.

`COc1cc2c(c(OC)c1OC)CC[C@H](N1CCC(n3c(=O)[nH]c4ccccc43)CC1)[C@H]2O` (relative stereo) [MG 38028, trans 2-[4-(2-Oxo-1-benzimidazolidinilyl)-1-piperidinyl]-5,6,7-trimethoxy-1-tetralol] gave an ED50 (toxic adrenaline doses) of 0.73 mg/kg.

In the case of `COc1cc2c(cc1OC)C(=O)C(N1CCC(NC(=O)c3ccccc3)CC1)C2` (stereo not drawn) [MG 38128], the “CHOL, % difference from control” value (Normolipemic rats; 0.370 mM/kg po × 4 days) is reported as ~ 0%, the “CHOL-HDL, % difference from control” value (Normolipemic rats; 0.370 mM/kg po × 4 days) is reported as “+46.8%” and the “Liver weight, % difference from control” value (Normolipemic rats; 0.370 mM/kg po × 4 days) is reported as “+8.6%”. For the same molecule, the “TG, % difference from control” value (Normolipemic rats; 0.370 mM/kg po × 4 days) was -38.8% and the “effect on TG and CHOL-HDL (in words)” value (Normolipemic rats; oral, 4 days) was “decrease TG and increase CHOL-HDL”.
